Data from patent EP1628646B1, “USE OF PPAR-GAMMA AGONISTS AS ANTI-INFECTIVE AGENTS” (priority 2003, dated 2004).

Columns and labels:
macrophages [1] = test: Production of oxidants by cultured macrophages, luminol chemiluminescence; type: cell-based, souris; settings: for Production d'agents oxydants, avec ANS / Production d'agents oxydants, avec ODN / Production d'agents oxydants, sans antisens: 1 h; for Production d'agents oxydants, avec ANS: macrophages incubated 3 days with non-specific antisense ANS, control 6972 ± 90; for Production d'agents oxydants, avec ODN: macrophages incubated 3 days with specific antisense ODN, control 6795 ± 178; for Production d'agents oxydants, sans antisens: without antisense, control 6737 ± 139
Experimental: Concernant le traitement à l'antisens ODN, une séquence complémentaire à la région 3' non traduite de l'ARNm du MMR (Yamamoto et al., Infect Immun, 1997, 65:1077-82), on incube l'antisens ODN (100 nM) avec 10 µg de lipide cationique Lipofectin (GIBCO, France) à 37°C pendant 5 min selon la méthode Capacciolis et al. (Biochem Biophys Res Commun, 1998, 197:818-25) puis on l'ajoute aux macrophages cultivés dans le DMEM sans sérum. Les cellules sont incubées pendant 4 heures à 37°C avec 5 % de CO2 atmosphérique. Le milieu est remplacé par du SFM contenant l'antisens ODN mais sans Lipofectin. Les cultures sont incubées pendant 3 jours avec un changement journalier du milieu. La concentration de l'antisens ODN utilisée n'entraîne aucune toxicité significative sur les macrophages. Les macrophages non traités et les macrophages traités avec la Lipofectin seule servent de contrôle. La séquence nucléique de l'antisens ODN est exposée dans le tableau 2. Le même traitement est réalisé avec un antisens non spécifique de l'ARNm du MMR, l'antisens ANS dont la séquence nucléique est exposée dans le tableau 2.
Pour les tests de production d'agents oxydants, l'explosion respiratoire oxygène-dépendante des macrophages traités par les agonistes de PPARγ est mesurée par chimiluminescence. Les macrophages (2.10^5) sont transférés sur des boîtes de culture de 5 mm de diamètre. Après activation des cellules, la production d'agents oxydants par les macrophages, en présence ou en absence de C. albicans, est mesurée par chimiluminescence en présence de luminol à 37°C. L'émission de chimiluminescence est enregistrée en continu pendant 1 heure après incubation des cellules avec le luminol (66 µM). Pour évaluer la production de l'anion superoxyde (O2^-), la chimiluminescence est mesurée en présence de SOD, un inhibiteur spécifique de la production d'anion superoxyde. Pour évaluer la production d'oxyde nitrique (NO), la chimiluminescence est mesurée en présence de la L-NMMA (NG-monométhyl-arginine, un compétiteur spécifique de la L-arginine pour la production de NO). Aucun des inhibiteurs n'affecte la viabilité aux concentrations utilisées.
Les analyses statistiques se basent sur la mesure de la surface sous la courbe et sont exprimées en coups x secondes.
La capacité des macrophages à produire de l'anion superoxyde et du monoxyde d'azote et leur modulation par la 15d-PGJ2 ont été également étudiées par la méthode de chimiluminescence qui permet d'évaluer non seulement la production d'anions superoxydes mais aussi celle du peroxynitrite produit au cours de l'interaction entre le monoxyde d'azote et l'anion superoxyde.
Afin d'évaluer la production d'anion superoxyde, la chimiluminescence a été mesurée- en présence ou non de SOD (enzyme métabolisant O2^- en H2O2) alors que la production de monoxyde d'azote est évaluée en présence d'un compétiteur de l'arginine qui est la L-NMMA. Tableau 3 : Effet des ligands agonistes de PPARγ sur la production d'agents oxydants par les macrophages en présence ou en absence de levure. L'évaluation de la production d'agents oxydants a été déterminée sur des macrophages en culture par la technique de chimiluminescence.
Cette étude a été réalisée afin de déterminer si l'augmentation de la production d'agents oxydants sous l'effet des agonistes de PPARγ dépendait ou non de la modulation des récepteurs mannose par ces différents traitements. Dans cet objectif, la modulation de la production d'agents oxydants par les macrophages transfectés par l'antisens spécifique des ARNm des récepteurs mannose a été étudiée. Après traitement avec les agonistes de PPARγ, le dosage de la quantité d'agents oxydants produits par les macrophages transfectés a été réalisé par chimiluminescence. Les résultats sont présentés dans le tableau 5. Tableau 5 : Implication du récepteur mannose dans la production d'agents oxydants des macrophages traités par les ligands de PPARγ. […]

macrophages [2] = test: Production of oxidants by macrophages from mice treated in vivo, chemiluminescence; design: species or system souris; settings: macrophages from SWISS and RAG-2 mice treated in vivo, vs control mice; figure 7
Text: Afin d'évaluer la production d'agents oxydants (radicaux libres oxygénés et monoxyde d'azote) par les macrophages après la mise en culture des macrophages, les activités conjointes de la NADPH oxydase et de la NOsynthase inductible sont mesurées par chimiluminescence en présence d'une sonde chimiluminogène, Luminol (SIGMA, France) : 5-amino2,3-diydro-1,4-phtalazine-dione. La production de chimiluminescence sera analysée avec un luminomètre (Wallac Victor II, Finlande) piloté par un ordinateur. Le luminol permet, en présence d'agents oxydants, l'émission de photons captés par le photomultiplicateur de la chambre noire du luminomètre thermostaté à 37°C et transformés en impulsions électriques quantifiables. Les valeurs de chimiluminescence seront enregistrées continuellement pendant 1 heure après incubation des cellules avec le luminol ([…]) et en présence ou non de levures.
L'évaluation de la production d'agents oxydants par les macrophages, en présence ou en absence de la levure, a été déterminée sur des macrophages en culture par la technique de chimiluminescence. La figure 7 expose les résultats obtenus, en nombre de coups secondes (C x S) comptabilisés pendant 1 heure, pour chaque test.

récepteur mannose [3] = test: Mannose receptor expression on macrophages from mice treated in vivo, flow cytometry; settings: cells from SWISS and RAG-2 mice treated in vivo; figure 8
Text: (§1) Ces injections ont été renouvelées tous les jours durant 5 jours.
La quantité de molécule de mBSA fixée, reflet direct de la quantité de récepteurs mannose présente sur les cellules, a été analysée à l'aide d'un cytomètre en flux (FACScalibur, Becton Dickinson).

macrophages péritonéaux [4] = test: Phagocytosis of C. albicans by peritoneal macrophages from infected mice treated in vivo; settings: treated i.p. (15d-PGJ2 0,01 µmoles, rosiglitazone 0,1 µmoles), 1 h challenge 1:1
Experimental: L'étude in vitro a été réalisée sur des lots de 10 souris, soit immunocompétentes (SWISS) ou immunodéficientes (RAG-2), qui ont été infectées par C. albicans.
(§2) Les souris hébergées dans des cages stériles ont été infectées par gavage de 500 µl d'une suspension de levures (2.10^7 cfu.ml^-1).
as §1
Après une incubation de 2 heures à l'étuve à 37°C, 5 % CO2, les cellules non adhérentes ont été éliminées par deux rinçages en PBS.
Afin d'évaluer la capacité des macrophages à phagocyter C. albicans, une technique basée sur l'incorporation de nucléotides radioactifs (Uracile tritié) au niveau de l'ARN des levures en voie de multiplication a été réalisée. Les levures pré-marquées sont déposées sur les tapis macrophagiques et mises à incuber à 37°C sous 5 % CO2. […] Sachant que la radioactivité mesurée dans le lysat est proportionnelle à la quantité de levures phagocytées et que celle mesurée dans les surnageants est proportionnelle à la quantité de levures externes, le pourcentage de levures phagocytées par rapport à la quantité de levures totales sera déterminé selon la formule suivante : %Phagocytose = (dpmlysat)/(dpmlysat + dpmsurnageant) [formula]

C. albicans = test: Gastrointestinal candidiasis in mice: number of yeasts in organs by CFU and real-time quantitative PCR; settings: SWISS and RAG-2 mice, oesophage, estomac, caecum, vs untreated mice, figure 10
Experimental: En parallèle, ce même protocole a été réalisé sur des souris SWISS immunocompétentes (Centre d'élevage - Etablissement Janvier, France).
as §2, §1
En cours et en fin d'expérimentation, des prélèvements sanguins ont été effectués afin de suivre la présence des levures dans le sang des souris. […] Au terme du protocole, les souris ont été euthanasiées et les différents organes ont été prélevés stérilement en vue de quantifier le nombre de levures présentes dans les différents organes par CFU et PCR quantitative en temps réel.
Pour quantifier le nombre de levures présentes dans les différents organes par CFU, après homogénéisation de chaque tissu, plusieurs dilutions sont réalisées et ensemencées dans des boîtes de culture. Les boîtes sont incubées à 35°C pendant 24 à 48 heures et le nombre de colonies est alors compté.
Pour quantifier le nombre de levures présentes dans les différents organes par PCR, après homogénéisation des différents organes, l'ADN total est extrait par la méthode phénol/chloroforme et soumis à une Q-PCR en temps réel. […] La détection se fait par hybridation de deux sondes marquées spécifiques de C. albicans (transfert de fluorescence).

cellules RAW 264.7 = test: Mannose receptor expression on RAW 264.7 cells transfected with CMV-luciférase or CMV-PPARγ, flow cytometry; settings: 24 h, 1 µM 15d-PGJ2, 5 µM ciglitazone, 5 µM rosiglitazone; for Moyenne géométrique de l'intensité de fluorescence, CMV-PPAR-γ: RAW 264.7 transfected with CMV-PPARγ, control 53,87; for Moyenne géométrique de l'intensité de fluorescence, CMV-LUC: RAW 264.7 transfected with CMV-luciférase, control 47,51
macrophages péritonéaux [5] = test: Phagocytosis of [3H]uracil-labelled C. albicans by treated peritoneal macrophages in vitro; type: cell-based, souris; settings: effect of the PPARγ antagonist added; figure 2
Experimental: Les macrophages, quant à eux, proviennent soit du péritoine de souris femelles SWISS (Centre d'élevage, Etablissement Janvier, France), soit du sang périphérique de donneurs sains. Ces macrophages, de souris ou d'humain, sont cultivés dans un milieu de culture SFM ("serum-free medium") optimisé pour la culture des macrophages, commercialisé par la société GibcoBRL, France. L'adhésion des cellules se produit après environ 2 heures de culture à 37°C sous atmosphère à 5 % de CO2. Les cellules n'adhérant pas à la boîte de culture sont éliminées par rinçage au PBS (GibcoBRL, France).
Pour étudier le mécanisme d'ingestion de C. albicans par les macrophages, des levures préalablement marquées par [^3H]uracile sont utilisées. Trois colonies de C. albicans sont dispersées dans 1 ml de bouillon Sabouraud contenant 150 µCi de [^3H]uracile. Après 24 heures de culture à 37°C sous agitation, les blastospores marqués sont centrifugés et resuspendus dans le SFM enrichi avec 1,8 % de glucose. Pour chaque essai, les monocouches de macrophages cultivées sur les plaques 24 puits sont traitées avec les agonistes de PPARγ pendant 20 heures, puis infectées avec C. albicans marqué et viable (dans une proportion macrophages/levures de 1:1) et laissées à incuber pendant 1 heure à 37°C, puis 2 heures à 5°C. Soumis à 5°C, les mécanismes de phagocytose sont bloqués. […]

récepteur mannose [6] = test: Mannose receptor expression on macrophages, FITC-mBSA flow cytometry; type: cell-based, souris; settings: antagonist 0,1 µM, 24 h; figure 5
Experimental: Pour les essais de cytométrie en flux, les macrophages sont rincés au PBS glacé. Le marquage des MMR est réalisé pendant une heure, dans la glace, à la manière d'un ligand spécifique conjugué avec de l'albumine bovine mannosylée marquée à la fluorescéine FITC (840 nM) (SIGMA, France). Afin de faciliter la sélection des populations de cellules viables, une coloration à l'iodure de propidium est réalisée. Toutes les analyses sont effectuées par le FACScalibur (Becton-Dickinson) en utilisant le logiciel CellQuest.
Dans une deuxième étape, l'induction de l'expression du récepteur mannose des macrophages péritonéaux murins sous l'effet des différents traitements a été étudiée par cytométrie de flux en présence d'un antagoniste irréversible de PPARγ, le GW 9662.
Ces résultats sont confirmés par la figure 5 qui montre que l'augmentation de l'expression du récepteur mannose à la surface des macrophages sous l'effet de la 15d-PGJ2 est antagonisée par le GW 9662.
Pour ce faire, les macrophages ont été traités pendant 3 jours avec l'antisens spécifique de l'ARNm du récepteur mannose (ODN). […] Les cellules ont été ensuite incubées avec la mBSA marquée au FITC, puis analysées par cytométrie en flux. L'intensité de la fluorescence analysée est représentée à la figure 6.

Row | augmentation de l'expression du récepteur mannose à la surface des macrophages sous l'effet de la 15d-PGJ2 (récepteur mannose [6]) | Compound | Production d'agents oxydants, avec ANS (macrophages [1]) | Production d'agents oxydants, avec ODN (macrophages [1]) | Production d'agents oxydants, sans antisens (macrophages [1]) | Production d'agents oxydants pendant 1 heure, + Levures L-NMMA (macrophages [1]; with yeast, in presence of L-NMMA) | Production d'agents oxydants pendant 1 heure, + Levures SOD (macrophages [1]; with yeast, in presence of SOD) | Production d'agents oxydants pendant 1 heure, + Levures (macrophages [1]; with yeast, no inhibitor) | Production d'agents oxydants pendant 1 heure, - Levure (macrophages [1]; without yeast) | production basale d'agents oxydants par les macrophages (macrophages [2]) | quantité d'albumine bovine mannosylée marquée à la fluorescéine présente sur les macrophages (récepteur mannose [3]) | Index de phagocytose, RAG-2 (macrophages péritonéaux [4]; RAG-2 mice infected with C. albicans, control 59,82 ± 2,43) | Index de phagocytose, SWISS (macrophages péritonéaux [4]; SWISS mice infected with C. albicans, control 42,97 ± 1,20) | colonisation des différents organes (nombre de levures) (C. albicans) | Moyenne géométrique de l'intensité de fluorescence, CMV-PPAR-γ (cellules RAW 264.7) | Moyenne géométrique de l'intensité de fluorescence, CMV-LUC (cellules RAW 264.7) | augmentation de la capacité de phagocytose des macrophages traités par les agonistes de PPARγ (macrophages péritonéaux [5])
1 |  | CCCCCC=CC=C1C(=O)C=CC1CC=CCCCC(=O)O (centres unmarked) [15d-PGJ2, 15-déoxy-Δ^12,14-prostaglandine J2] | 9678 ± 106 coups x secondes | 7012 ± 98 coups x secondes | 9161 ± 85 coups x secondes | 14258 ± 216 coups x secondes | 7228 ± 212 coups x secondes | 13905 ± 328 coups x secondes | 7469 ± 238 coups x secondes | la même quantité basale d'agents oxydants | significativement augmentée | 76,32 ± 1,89 | 65,26 ± 2,11 | diminution significative de la colonisation | 73 | 44,29 | 
2 | antagonisée | O=C(Nc1ccccc1)c1cc([N+](=O)[O-])ccc1Cl [GW 9662] |  |  |  |  |  |  |  |  |  |  |  |  |  |  | inhibée
3 |  | CC1(COc2ccc(CC3SC(=O)NC3=O)cc2)CCCCC1 (centres unmarked) [ciglitazone] | 8322 ± 183 coups x secondes | 7109 ± 155 coups x secondes | 8398 ± 104 coups x secondes |  |  |  |  |  |  |  |  |  | 64,3 | 38,51 | 
4 |  | CN(CCOc1ccc(CC2SC(=O)NC2=O)cc1)c1ccccn1 (centres unmarked) [rosiglitazone] | 8813 ± 190 coups x secondes | 7197 ± 77 coups x secondes | 8960 ± 179 coups x secondes |  |  |  |  |  |  |  |  |  | 61,51 | 37,94 | 
